Laboratory results as given in patent US20240239786A1, “COMPOSITIONS AND METHODS FOR THE TREATMENT AND PREVENTION OF CANCER” (Yale University, priority 2021, published 2024).

Key:
[1] = system: DSB end resection; assay: Western blot of DSB end resection with etoposide in PEO4 cells; type: cell-based; settings: for Chk1 phosphorylation with/without etoposide: 5 μM etoposide 4 hr; for RPA32 phosphorylation, drug alone: 30 μM DB4, 1 μM triapine or 5 μM etoposide; for etoposide-induced RPA32 phosphorylation: pre-treated 1 hr, then 5 μM etoposide 4 hr
Method: PEO1 cells were treated with 30 μM DB4 or 1 μM triapine for indicated times, pulsed with EdU for 1 hr and subsequently assayed for DNA synthesis inhibition as described in FIG. 2B. The bivariate plots of Alexa Fluor 488 and PE-Cy5 were gated to determine % S phase cells. […] PEO4 cells were treated with 30 μM DB4 or 1 μM triapine for indicated times, pulsed with EdU for 1 hr and subsequently assayed for DNA synthesis inhibition as described in FIG. 2B. The bivariate plots of Alexa Fluor 488 and PE-Cy5 were gated to determine % S phase cells. […] The bivariate plots of Alexa Fluor 488 and PE-Cy5 shown in FIG. 6A and FIG. 6B were gated to determine % cells in G1, S, and G2/M phases. […] PEO4 cells were treated with 30 μM DB4 or 1 μM triapine for various time periods and subjected to western blot analysis for the levels of cyclin A2, p-CDK1/2, p-H1, p-Chk1, and HSC70. The HSC70 protein level was used as a loading control. Cropped gel images of protein bands are presented. Cyclin A2, p-CDK1/2, and p-H1 bands were from re-probing the same blot. p-Chk1 and HSC70 bands were from re-probing the same duplicated blot. […] The CDK2 activity is expressed by the percentage of the p-HI levels relative to that of the 0 hr control is shown. […] Protein was analyzed by western blotting for p-Chk1, p-ATR, p-RPA32, γH2AX, and HSC70. Cropped gel images of protein bands are presented. All protein bands were from re-probing the same blot. DSB end resection is assessed by the level of p-RPA32.
To investigate the effects of DB4 on DSB end resection, the level of RPA32 phosphorylation, indicative of CDK2-dependent DSB end resection, was determined.
The methodology was described previously (Lin Z P et al., 2014, Molecular Cancer Res, 12:381-393; Ratner E S et al., 2016, Br J Cancer, 114:777-786). The anti-HSC70 antibody was purchased from Santa Cruz (Santa Cruz, CA). Anti-cyclin A2, anti-phospho-ATR (Thr-1981), anti-phospho-Chk1 (Ser-345), anti-phospho-CDK1/2 (Tyr-15), and anti-Y-H2AX (Ser-139) antibodies were from Cell Signaling (Danvers, MA). Anti-phospho-RPA32 (S4/S8) and anti-BRCA2 antibodies were from Bethyl Laboratories (Montgomery, TX). Anti-phospho-histone H1 antibody was from Millipore-Sigma (Burlington, MA). To avoid the cross-reaction of secondary antibodies with previously probed primary antibodies, blots were stripped and re-probed with next primary antibodies raised in a different species in an alternate fashion. All images were acquired and processed using the G: BOX gel documentation system and the GeneSnap software (Syngene, Frederick, MD). Brightness and contrast of images were applied equally across the entire gel/blot image and to controls. Images of protein bands were cropped and only brightness-adjusted using the PowerPoint software (Microsoft, Redmond, WA). Quantification of the protein band intensity was performed using the ImageJ software (NIH, Bethesda, MD).

[2] = system: SKOV3 xenografts; assay: Subcutaneous growth of SKOV3 xenografts; type: in vivo, NCG mice; settings: i.p., 4 weeks; olaparib 50 mg/kg qd, DB4 10 mg/kg q2d
Method: SCID-Beige mice implanted ip with PEO4ip cells were treated daily (qd) with DB4 (10 mg/kg), olaparib (50 mg/kg), and the DB4-olaparib combination for 4 weeks. Kaplan Meier analysis was performed to determine the survival time of mice following treatments. Statistical significance was determined by the Mantel-Cox test comparing the control with each treatment group (N=4-5). […] DB4 given every two days (q2d) in the DB4-olaparib combination for 4 or 6 weeks (n=4-5). […] NOD CRISPR Prkdc Il2r Gamma (NCG) mice implanted sc with SKOV3 cells were treated as described in FIG. 10C for 4 weeks during which the tumor size was measured. Statistical significance was determined by the Wilcoxon matched-pairs signed test comparing the control with each treatment group and comparing between treatment groups. […]
The efficacy of the combination of DB4 and olaparib to treat SKOV3 tumor xenografts, as determined by the tumor size, was ascertained in a subcutaneous (s.c.) mouse model (Ratner E S et al., 2016, Br J Cancer, 114:777-786; Lin Z P et al., 2018, PLOS One, 13:e0207399). […]
The progression of PEO4ip tumor xenografts in mice was evaluated by measuring the size of the circumference at the lower one-third of the abdominal area with the mouse head positioned upward. […] The growth of SKOV3 tumor xenografts was evaluated by the size of s.c. tumor using a digital caliper. […]

Compound | ATR phosphorylation [1] | Chk1 phosphorylation with/without etoposide [1] | RPA32 phosphorylation, drug alone [1] | etoposide-induced RPA32 phosphorylation [1] | inhibition of subcutaneous growth of SKOV3 xenografts (tumor size) [2]
C=CCn1c(SCc2cccc(Cl)c2)nnc1C1CCN(Cc2nc3ccccc3s2)CC1 [DB4, 2-[(4-{4-allyl-5-[(3-chlorobenzyl)thio]-4H-1,2,4-triazol-3-yl}-1-piperidinyl)methyl]-1,3-benzothiazole] | weakly induce ATR phosphorylation | only synergized with etoposide to induce Chk1 phosphorylation | no effect on basal RPA32 phosphorylation | augmented etoposide-induced RPA32 phosphorylation | moderately but significantly inhibited
O=C(c1cc(Cc2n[nH]c(=O)c3ccccc23)ccc1F)N1CCN(C(=O)C2CC2)CC1 [olaparib, reference compound] | – | – | – | – | moderately but significantly inhibited
NC(=S)NN=Cc1ncccc1N [triapine, 3-aminopyridine-2-carboxaldehyde-thiosemicarbazone, reference compound] | induced ATR and Chk1 phosphorylation independently of etoposide treatment | induced ATR and Chk1 phosphorylation independently of etoposide treatment | induced a minor RPA32 phosphorylation | blocked phosphorylation of RPA32, induced by etoposide | –
